The text below walks through data of US20050256064A1, “9-Desoxoerythromycin compounds as prokinetic agents” (priority 2003, published 2005).

The target in one series is hERG potassium channel (Homo sapiens, UniProt Q12809). As to the kind of experiment: in vitro. Particulars: human. The text has this:
(§1) Stanat et al., Mol. Cellular Biochem., 254, 1-7 (2003), “Characterization of the Inhibitory Effects of Erythromycin and Clarithromycin on the HERG Potassium Channel”.

The target of the next series is cytochrome P450 3A4 (Homo sapiens, UniProt P08684). As to the kind of experiment: Cytochrome P450 inhibition. It is filed as in vitro ADME. The procedure:
The inhibitory effect of compound I-b on cytochrome P450 3A4, the most abundant of the cytrochrome P450 enzymes responsible for the metabolism of many drugs, was determined, using a method based on Stresser et al., Drug Metabolism Disposition, 30 (7), 845-52. A strong inhibitory effect is undesirable, as indicative of a high probability of interference with other drugs.

In another series the test system is S. pneumoniae. As to the kind of experiment: Antibacterial activity, MIC by serial dilutions on 96-well microtiter plates. The format is cell-based. The conditions noted are these: for MIC: Streptococcus pneumoniae.
The subject of the next series is rabbit duodenum strips. Put plainly: Chronic dosing tachyphylaxis model. The conditions noted are these: for % of the initial contraction after the fourth dose: dosed at EC90 at 0, 30, 60 and 90 min, response at 0 min set as 100%. The procedure: Rabbit duodenum strips were qualified as described above and dosed with test compound at its EC90 concentration. The contraction was recorded. When peak contractile force was reached, carbachol (1 μM) was added, and any further contraction was recorded. The resulting contraction is expressed as a fraction of the 1 μM carbachol contraction. The test compound and carbachol were washed away by changing the bath solution twice. The procedure was repeated at 30, 60, and 90 min following the initial dosing.

In series [1] the target is T1, human motilin receptor (Homo sapiens, UniProt O43193).
T1 construct: expressed in transfected cells; host or cells: HEK293
T1 sequence (O43193 whole entry): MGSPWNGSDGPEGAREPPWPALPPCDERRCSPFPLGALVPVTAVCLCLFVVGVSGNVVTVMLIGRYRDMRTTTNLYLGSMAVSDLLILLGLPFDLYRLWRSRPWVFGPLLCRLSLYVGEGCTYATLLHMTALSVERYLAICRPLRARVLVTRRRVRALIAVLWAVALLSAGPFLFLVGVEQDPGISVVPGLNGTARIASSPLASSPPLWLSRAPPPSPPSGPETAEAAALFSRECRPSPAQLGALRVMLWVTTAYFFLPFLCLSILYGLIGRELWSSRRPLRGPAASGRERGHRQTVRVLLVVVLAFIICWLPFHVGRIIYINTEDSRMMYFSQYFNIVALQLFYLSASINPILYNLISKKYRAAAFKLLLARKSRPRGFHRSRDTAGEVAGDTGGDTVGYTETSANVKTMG
Put plainly: Motilin agonist potency (cell based assay). Particulars: HEK293 cells expressing human motilin receptor. The procedure: The motilin agonist potency of compound I-b was evaluated in a cell based assay, according to the procedure disclosed in Carreras et al., Anal. Biochemistry, 300, 146-151 (2002), the disclosure of which is incorporated herein by reference. Briefly, in this method HEK293 cells are transformed with a synthetic gene for the human motilin receptor. Expression of the synthetic gene produces the human motilin receptor; then the activation of the receptor by the binding of a test compound thereto is measured.

Another series concerns rabbit duodenum tissue. As to the kind of experiment: Motilin agonist potency (tissue based assay), rabbit duodenum contractility. Particulars: Oryctolagus cuniculus, rabbit duodenum contraction. As for the experimental part: The motilin agonist potency of compound I-b also was evaluated using a tissue based assay, using rabbit duodenum tissue-based contractility assay, generally following the procedure of Depoortere et al., J. Gastrointestinal Motility, 1, 150-159 (1989), the disclosure of which is incorporated herein by reference. Briefly, this method measures the ability of a compound to induce contractions in rabbit duodenal tissue, a tissue that responds to motilin.
Strips of rabbit duodenum were tested and qualified for use in the assay by as follows. Segments of rabbit duodenum, 20-30 cm distal to the pylorus were split longitudinally. The mucosa was removed and 2×2×15 mm strips of longitudinal smooth muscle were sliced from the segments. The strips were bathed in oxygenated Krebs solution at 37° C., with 1.5 g of tension, and contractions measured auxotonically. […] Qualified strips were mounted on the test apparatus.
Compound I-b was dissolved in dimethylsulfoxide (DMSO) to a final concentration of 10 mM. […]
The EC50 (concentration producing a half-maximal effect) was calculated as follows. The basal tension was subtracted from the compound-induced tension for each reading. […] Both R and Rmax are expressed as a fraction of the 1 μM carbachol contraction and range from 0 to 1. […]

Series [2] addresses T1, human motilin receptor. Particulars: HEK293 cells expressing human motilin receptor; as reported in Anal. Biochemistry; read-out: Motilin Agonist EC50; cited from earlier work.
Series [3] addresses hERG (human ether-a-go-go related gene) potassium channel (Homo sapiens, UniProt Q12809). Put plainly: in vitro.
Excerpt: as §1

In brackets after ≈: the same amount, converted by molar mass. Like-named read-outs stand apart in the source and are kept apart here.

Sequence of hERG potassium channel (Q12809 whole entry): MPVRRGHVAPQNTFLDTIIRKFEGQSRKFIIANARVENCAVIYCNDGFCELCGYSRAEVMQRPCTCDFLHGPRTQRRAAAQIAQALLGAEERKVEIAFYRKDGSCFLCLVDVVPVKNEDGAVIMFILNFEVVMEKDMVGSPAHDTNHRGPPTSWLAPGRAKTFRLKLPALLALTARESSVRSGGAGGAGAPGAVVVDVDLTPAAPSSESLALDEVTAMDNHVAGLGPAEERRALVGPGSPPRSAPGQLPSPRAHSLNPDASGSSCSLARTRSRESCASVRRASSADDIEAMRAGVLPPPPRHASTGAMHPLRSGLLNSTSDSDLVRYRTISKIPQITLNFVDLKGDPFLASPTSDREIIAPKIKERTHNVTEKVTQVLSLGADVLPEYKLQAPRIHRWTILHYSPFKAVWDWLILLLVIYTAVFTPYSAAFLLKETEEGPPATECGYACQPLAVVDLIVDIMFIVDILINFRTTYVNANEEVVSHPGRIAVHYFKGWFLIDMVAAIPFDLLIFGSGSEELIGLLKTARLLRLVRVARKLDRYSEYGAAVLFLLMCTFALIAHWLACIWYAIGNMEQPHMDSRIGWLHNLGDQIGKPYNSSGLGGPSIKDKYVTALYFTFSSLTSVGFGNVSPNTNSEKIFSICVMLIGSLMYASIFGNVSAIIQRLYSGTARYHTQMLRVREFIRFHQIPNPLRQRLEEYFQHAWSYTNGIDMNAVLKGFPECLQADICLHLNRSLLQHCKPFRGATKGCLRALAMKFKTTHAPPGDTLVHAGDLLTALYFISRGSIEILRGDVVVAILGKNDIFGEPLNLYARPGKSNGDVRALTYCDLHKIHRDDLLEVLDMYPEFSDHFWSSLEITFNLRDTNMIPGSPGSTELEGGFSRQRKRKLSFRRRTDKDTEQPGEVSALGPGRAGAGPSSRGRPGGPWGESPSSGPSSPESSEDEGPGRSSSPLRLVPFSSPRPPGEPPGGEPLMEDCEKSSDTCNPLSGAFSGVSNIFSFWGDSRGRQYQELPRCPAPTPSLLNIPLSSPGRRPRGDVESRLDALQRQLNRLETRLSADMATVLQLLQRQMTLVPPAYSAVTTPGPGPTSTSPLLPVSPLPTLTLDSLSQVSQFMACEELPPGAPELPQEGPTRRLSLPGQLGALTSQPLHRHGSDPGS
Sequence of hERG (human ether-a-go-go related gene) potassium channel (Q12809 whole entry): as above
Sequence of cytochrome P450 3A4 (P08684 whole entry): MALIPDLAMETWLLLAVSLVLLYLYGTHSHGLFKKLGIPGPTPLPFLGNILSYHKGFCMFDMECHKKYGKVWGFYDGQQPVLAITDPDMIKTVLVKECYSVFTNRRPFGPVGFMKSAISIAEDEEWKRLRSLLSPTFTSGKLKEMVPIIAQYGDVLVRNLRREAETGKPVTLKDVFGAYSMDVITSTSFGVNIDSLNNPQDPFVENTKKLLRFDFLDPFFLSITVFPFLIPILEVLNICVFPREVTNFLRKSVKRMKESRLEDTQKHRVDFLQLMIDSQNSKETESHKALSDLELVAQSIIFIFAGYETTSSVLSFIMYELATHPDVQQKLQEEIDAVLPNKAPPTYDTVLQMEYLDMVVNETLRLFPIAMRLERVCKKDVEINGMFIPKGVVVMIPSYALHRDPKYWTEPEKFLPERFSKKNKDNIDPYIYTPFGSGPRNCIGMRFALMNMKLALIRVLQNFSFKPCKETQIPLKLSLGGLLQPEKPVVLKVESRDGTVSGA

The inhibition is the change of the read-out against control, counted positive when it falls. A lower inhibition goes with a response near the control. At hERG potassium channel, `CC[C@H]1OC(=O)[C@H](C)[C@@H](O[C@H]2C[C@@](C)(OC)[C@@H](O)[C@H](C)O2)[C@H](C)[C@@H](O[C@@H]2O[C@H](C)C[C@H](N(C)CC(C)C)[C@H]2O)C(C)(O)C[C@@H](C)C[C@H](C)[C@@H](O)[C@]1(C)O` (some centres unmarked) [Compound I-d, N-Desmethyl-N-isobutyl-9-desoxoerythromycin A] registered an inhibition at 10 µM of 33.1% and an inhibition at 30 µM of 71.4%.

On hERG potassium channel, `CCC(C)N(C)[C@H]1C[C@@H](C)O[C@@H](O[C@@H]2[C@@H](C)[C@H](O[C@H]3C[C@@](C)(OC)[C@@H](O)[C@H](C)O3)[C@@H](C)C(=O)O[C@H](CC)[C@@](C)(O)[C@H](O)[C@@H](C)C[C@H](C)CC2(C)O)[C@@H]1O` (some centres unmarked) [Compound I-c, N-Desmethyl-N-sec-butyl-9-desoxoerythromycin A] returned an inhibition at 10 µM of 26.5% and an inhibition at 30 µM of 70.3%.

In general, Ki refers to the equilibrium dissociation constant of an inhibitor or competing ligand from its target. A lower Ki goes with higher affinity. `CC[C@H]1OC(=O)[C@H](C)[C@@H](O[C@H]2C[C@@](C)(OC)[C@@H](O)[C@H](C)O2)[C@H](C)[C@@H](O[C@@H]2O[C@H](C)C[C@H](N(C)C(C)C)[C@H]2O)C(C)(O)C[C@@H](C)C[C@H](C)[C@@H](O)[C@]1(C)O` (some centres unmarked) [Compound I-b, N-Desmethyl-N-isopropyl-9-desoxoerythromycin A] yielded a Ki on cytochrome P450 3A4 of 9900 nM. In addition, the inhibition at 10 µM on hERG potassium channel was 74%. In addition, 30 µM produced 95% inhibition on hERG potassium channel. The MIC is 50 µg/mL (≈ 66.8 µM) in the series on S. pneumoniae (ATCC6301, S. pneumoniae strain ATCC 6301, read-out: Minimum Inhibitory Concentration (MIC)); 50 µg/mL (≈ 66.8 µM) in the series on S. pneumoniae (ATCC49619, S. pneumoniae strain ATCC 49619, read-out: Minimum Inhibitory Concentration (MIC)); above 200 µg/mL with S. pneumoniae (ATCC700671, S. pneumoniae strain ATCC 700671, read-out: Minimum Inhibitory Concentration (MIC)). In the series with S. pneumoniae (erythromycin A sensitive strains of S. pneumoniae, in words), the antibacterial activity entry is given as “low antibacterial activity”. In the series on rabbit duodenum strips (contractile responses at 0, 30, 60, 90 min, in words), the “tachyphylaxis effect (FIG. 1)” value is reported as “distinctly less pronounced than that of ABT 229”. Moreover, the “% of the initial contraction after the fourth dose” value in the series on rabbit duodenum strips is given as 39±13%. The EC50 came to 1200 nM on human motilin receptor [1] and 180 nM in the series on rabbit duodenum tissue (normalized to 1 μM carbachol, read-out: EC50 (concentration producing a half-maximal effect)). Further, in the series with rabbit duodenum tissue (approximated as ten times EC50 and verified, read-out: EC90 (concentration producing 90% of the maximal effect)), the EC90 was found to be 1800 nM.

Regarding `CC[C@H]1OC(=O)[C@H](C)[C@@H](OC2C[C@@](C)(OC)C[C@H](C)O2)[C@H](C)[C@@H](OC2O[C@H](C)C[C@H](N(C)CC)[C@H]2O)[C@@]2(C)CC(C)=C(O2)[C@H](C)[C@@H](O)[C@H]1C` (some centres unmarked) [ABT 229], the EC50 at human motilin receptor [2] was 40 nM.

Turning to `CC[C@H]1OC(=O)[C@H](C)[C@@H](O[C@H]2C[C@@](C)(OC)[C@@H](O)[C@H](C)O2)[C@H](C)[C@@H](O[C@@H]2O[C@H](C)C[C@H](N(C)C)[C@H]2O)[C@](C)(O)C[C@@H](C)C(=O)[C@H](C)[C@@H](O)[C@]1(C)O` [Erythromycin A, reference compound], the MIC in the series on S. pneumoniae (ATCC6301, read-out: Minimum Inhibitory Concentration (MIC)) came out at 0.025 µg/mL (≈ 0.0341 µM); in the series with S. pneumoniae (ATCC49619, read-out: Minimum Inhibitory Concentration (MIC)), 0.049 µg/mL (≈ 0.0668 µM); with S. pneumoniae (ATCC700671, read-out: Minimum Inhibitory Concentration (MIC)), 0.049 µg/mL (≈ 0.0668 µM).

As for `CCC1OC(=O)C(C)C(OC2CC(C)(OC)C(O)C(C)O2)C(C)C(OC2OC(C)CC(N(C)CCO)C2O)C(C)(O)CC(C)CC(C)C(O)C1(C)O` (centres unmarked) [Compound I-e, N-Desmethyl-N-(2-hydroxyethyl)-9-desoxoerythromycin A], the “Inhibition (%) at Specified Compound Concentration” value came out at 57.1% in series [3] (10 µM) and 84.3% in series [3] (30 µM). Moreover, the “% of the initial contraction after the fourth dose” value in the series with rabbit duodenum strips amounted to 85±11%.
